Laboratory results from US10570129B2 (Zoetis Services LLC, priority 2015, dated 2020).

Key:
D. immitis microfilariae = test: Dirofilaria immitis, microfilariae (DiMF) in vitro motility assay; type: cell-based; conditions: Dirofilaria immitis, 72 h, read-out: DiMF minimally effective dose (MEC)
Haemonchus contortus L3 = test: microbe, parasite or virus in culture; type: cell-based; conditions: Haemonchus contortus, 96 h, read-out: HcL3 Minimal Effective Concentration (MEC)

## O=C(NCc1cnc(Cl)s1)n1c2c(c3cc(Cl)c(Cl)cc31)CN(C/C=C/c1ccc(Cl)cc1)CC2 [Example 294, (E)-7,8-dichloro-2-(3-(4-chlorophenyl)allyl)-N-((2-chlorothiazol-5-yl)methyl)-1,2,3,4-tetrahydro-5H-pyrido[4,3-b]indole-5-carboxamide]
D. immitis microfilariae
  minimal effective concentration: 10 µM
Haemonchus contortus L3
  minimal effective concentration: > 100 µM

## O=C(NCc1cnc(Cl)s1)n1c2c(c3c(Cl)c(Cl)ccc31)CN(C/C=C/c1ccc(Cl)cc1)CC2 [Example 295, (E)-8,9-dichloro-2-(3-(4-chlorophenyl)allyl)-N-((2-chlorothiazol-5-yl)methyl)-1,2,3,4-tetrahydro-5H-pyrido[4,3-b]indole-5-carboxamide]
D. immitis microfilariae
  minimal effective concentration: 18.2 µM
Haemonchus contortus L3
  minimal effective concentration: > 100 µM

## N#Cc1cc2c(cc1Cl)c1c(n2C(=O)NCc2ccnc(Cl)c2)CCN(C/C=C/c2ccc(Cl)cc2)C1 [Example 296, (E)-8-chloro-2-(3-(4-chlorophenyl)allyl)-N-((2-chloropyridin-4-yl)methyl)-7-cyano-1,2,3,4-tetrahydro-5H-pyrido[4,3-b]indole-5-carboxamide]
D. immitis microfilariae
  minimal effective concentration: > 100 µM
Haemonchus contortus L3
  minimal effective concentration: 1 µM

## O=C(NCc1ccnc(Cl)c1)n1c2c(c3cc(F)c(Cl)cc31)CN(C/C=C/c1ccc(Cl)c(F)c1)CC2 [Example 297, (E)-7-chloro-2-(3-(4-chloro-3-fluorophenyl)allyl)-N-((2-chloropyridin-4-yl)methyl)-8-fluoro-1,2,3,4-tetrahydro-5H-pyrido[4,3-b]indole-5-carboxamide]
D. immitis microfilariae
  minimal effective concentration: > 100 µM
Haemonchus contortus L3
  minimal effective concentration: 0.3 µM

## N#Cc1ccc(/C=C/CN2CCc3c(c4cc(F)c(Cl)cc4n3C(=O)NCc3ccnc(Cl)c3)C2)cc1F [Example 298, (E)-7-chloro-N-((2-chloropyridin-4-yl)methyl)-2-(3-(4-cyano-3-fluoro-phenyl)allyl)-8-fluoro-1,2,3,4-tetrahydro-5H-pyrido[4,3-b]indole-5-carboxamide]
D. immitis microfilariae
  minimal effective concentration: > 100 µM
Haemonchus contortus L3
  minimal effective concentration: 1.8 µM

## O=C(NCc1ccnc(Cl)c1)n1c2c(c3cc(F)c(Cl)cc31)CN(C/C=C/c1ccc(F)cc1F)CC2 [Example 299, (E)-7-chloro-N-((2-chloropyridin-4-yl)methyl)-2-(3-(2,4-difluorophenyl)-allyl)-8-fluoro-1,2,3,4-tetrahydro-5H-pyrido[4,3-b]indole-5-carboxamide]
D. immitis microfilariae
  minimal effective concentration: 1.8 µM
Haemonchus contortus L3
  minimal effective concentration: 0.4 µM

## O=C(NCc1ccnc(Cl)c1)n1c2c(c3cc(F)c(Cl)cc31)CN(C/C=C/c1ccc(F)c(F)c1)CC2 [Example 300, (E)-7-chloro-N-((2-chloropyridin-4-yl)methyl)-2-(3-(3,4-difluorophenyl)-allyl)-8-fluoro-1,2,3,4-tetrahydro-5H-pyrido[4,3-b]indole-5-carboxamide]
D. immitis microfilariae
  minimal effective concentration: 10 µM
Haemonchus contortus L3
  minimal effective concentration: 0.5 µM

## O=C(NCc1ccnc(Cl)c1)n1c2c(c3cc(F)c(Cl)cc31)CN(C/C=C/c1cc(F)c(F)c(F)c1)CC2 [Example 301, (E)-7-chloro-N-((2-chloropyridin-4-yl)methyl)-8-fluoro-2-(3-(3,4,5-trifluorophenyl)allyl)-1,2,3,4-tetrahydro-5H-pyrido[4,3-b]indole-5-carboxamide]
D. immitis microfilariae
  minimal effective concentration: 18.2 µM
Haemonchus contortus L3
  minimal effective concentration: 0.2 µM

## O=C(NCc1ccnc(Cl)c1)n1c2c(c3cc(F)c(Cl)cc31)CN(C/C=C/c1cc(F)cc(F)c1)CC2 [Example 302, (E)-7-chloro-N-((2-chloropyridin-4-yl)methyl)-2-(3-(3,5-difluorophenyl)-allyl)-8-fluoro-1,2,3,4-tetrahydro-5H-pyrido[4,3-b]indole-5-carboxamide]
D. immitis microfilariae
  minimal effective concentration: 5.7 µM
Haemonchus contortus L3
  minimal effective concentration: 0.3 µM

## N#Cc1ccc(/C=C/CN2CCc3c(c4c(Cl)c(F)ccc4n3C(=O)NCc3ccnc(Cl)c3)C2)cc1 [Example 303, (E)-9-chloro-N-((2-chloropyridin-4-yl)methyl)-2-(3-(4-cyanophenyl)allyl)-8-fluoro-1,2,3,4-tetrahydro-5H-pyrido[4,3-b]indole-5-carboxamide]
D. immitis microfilariae
  minimal effective concentration: 57.4 µM
Haemonchus contortus L3
  minimal effective concentration: 1 µM

## O=C(NCc1ccnc(Cl)c1)n1c2c(c3cc(F)c(Cl)cc31)CN(C/C=C/c1ccc(Cl)cc1)CC2 [Example 304, (E)-7-chloro-2-(3-(4-chlorophenyl)allyl)-N-((2-chloropyridin-4-yl)methyl)-8-fluoro-1,2,3,4-tetrahydro-5H-pyrido[4,3-b]indole-5-carboxamide]
D. immitis microfilariae
  minimal effective concentration: 18.2 µM
Haemonchus contortus L3
  minimal effective concentration: 0.3 µM

## O=C(NCc1ccnc(Cl)c1)n1c2c(c3c(Cl)c(F)ccc31)CN(C/C=C/c1ccc(Cl)cc1)CC2 [Example 305, (E)-9-chloro-2-(3-(4-chlorophenyl)allyl)-N-((2-chloropyridin-4-yl)methyl)-8-fluoro-1,2,3,4-tetrahydro-5H-pyrido[4,3-b]indole-5-carboxamide]
D. immitis microfilariae
  minimal effective concentration: 16.5 µM
Haemonchus contortus L3
  minimal effective concentration: 0.9 µM

## O=C(NCc1ccnc(Cl)c1)n1c2c(c3c(Cl)c(F)ccc31)CN(C/C=C/c1ccc(C(F)(F)F)cc1)CC2 [Example 308, (E)-9-chloro-N-((2-chloropyridin-4-yl)methyl)-8-fluoro-2-(3-(4-(trifluoro-methyl)phenyl)allyl)-1,2,3,4-tetrahydro-5H-pyrido[4,3-b]indole-5-carboxamide]
D. immitis microfilariae
  minimal effective concentration: 32.1 µM
Haemonchus contortus L3
  minimal effective concentration: 10.3 µM

## O=C(NCc1ccnc(F)c1)n1c2c(c3cc(F)c(Cl)cc31)CN(C/C=C/c1ccc(Cl)c(F)c1)CC2 [Example 309, (E)-7-chloro-2-(3-(4-chloro-3-fluorophenyl)allyl)-8-fluoro-N-((2-fluoropyridin-4-yl)methyl)-1,2,3,4-tetrahydro-5H-pyrido[4,3-b]indole-5-carboxamide]
D. immitis microfilariae
  minimal effective concentration: 1.8 µM
Haemonchus contortus L3
  minimal effective concentration: 0.3 µM

## O=C(NCc1ccnc(F)c1)n1c2c(c3cc(F)c(Cl)cc31)CN(C/C=C/c1ccc(Cl)cc1F)CC2 [Example 310, (E)-7-chloro-2-(3-(4-chloro-2-fluorophenyl)allyl)-8-fluoro-N-((2-fluoropyridin-4-yl)methyl)-1,2,3,4-tetrahydro-5H-pyrido[4,3-b]indole-5-carboxamide]
D. immitis microfilariae
  minimal effective concentration: 24.5 µM
Haemonchus contortus L3
  minimal effective concentration: 1.3 µM

## N#Cc1ccc(/C=C/CN2CCc3c(c4cc(F)c(Cl)cc4n3C(=O)NCc3ccnc(F)c3)C2)cc1F [Example 311, (E)-7-chloro-2-(3-(4-cyano-3-fluorophenyl)allyl)-8-fluoro-N-((2-fluoro-pyridin-4-yl)methyl)-1,2,3,4-tetrahydro-5H-pyrido[4,3-b]indole-5-carboxamide]
D. immitis microfilariae
  minimal effective concentration: 5.7 µM
Haemonchus contortus L3
  minimal effective concentration: 0.5 µM

## O=C(NCc1ccnc(F)c1)n1c2c(c3cc(F)c(Cl)cc31)CN(C/C=C/c1ccc(F)cc1F)CC2 [Example 312, (E)-7-chloro-2-(3-(2,4-difluorophenyl)allyl)-8-fluoro-N-((2-fluoropyridin-4-yl)methyl)-1,2,3,4-tetrahydro-5H-pyrido[4,3-b]indole-5-carboxamide]
D. immitis microfilariae
  minimal effective concentration: 1 µM
Haemonchus contortus L3
  minimal effective concentration: 0.1 µM

## O=C(NCc1ccnc(F)c1)n1c2c(c3cc(F)c(Cl)cc31)CN(C/C=C/c1ccc(F)c(Cl)c1)CC2 [Example 313, (E)-7-chloro-2-(3-(3-chloro-4-fluorophenyl)allyl)-8-fluoro-N-((2-fluoro-pyridin-4-yl)methyl)-1,2,3,4-tetrahydro-5H-pyrido[4,3-b]indole-5-carboxamide]
D. immitis microfilariae
  minimal effective concentration: 3.3 µM
Haemonchus contortus L3
  minimal effective concentration: 0.5 µM
